Earlier results on 31 molecules are cited in paper PMC6311893, “Computational prediction of plasma protein binding of cyclic peptides from small molecule experimental data using sparse modeling techniques” (BMC Bioinformatics, 2018).

SMILES strings stand for the structures.

The subject of one data set is plasma protein. As to conditions: fraction bound to plasma protein; small molecule dataset, sheet 1-SM (Set Dte = test, Dtr = training); ref Ingle et al.; cited from earlier work.
Take `CC1(C)S[C@@H]2[C@H](NC(=O)COc3ccccc3)C(=O)N2[C@H]1C(=O)O` [Phenoxymethylpenicillin]: the “PPB (fb)” value was 0.67.

As for `CC(=O)O[C@H]1C[C@@H]2CC[C@@H]3[C@H](CC[C@@]4(C)[C@H]3C[C@H](N3CC[N+](C)(C)CC3)[C@@H]4OC(C)=O)[C@@]2(C)C[C@@H]1N1CC[N+](C)(C)CC1` [Pipecuronium], the “PPB (fb)” value is recorded as 0.02.

Take `CCCN(CCC)S(=O)(=O)c1ccc(C(=O)O)cc1` [Probenecid]: the “PPB (fb)” value was 0.88.

`CCCc1cc(=O)[nH]c(=S)[nH]1` [Propylthiouracil]: the “PPB (fb)” value is listed as 0.81.

As to `C[C@H](N[C@@H](CCc1ccccc1)C(=O)O)C(=O)N1Cc2ccccc2C[C@H]1C(=O)O` [Quinaprilat], the “PPB (fb)” value is reported as 0.68.

Consider `C=C[C@H]1C[N@@]2CC[C@H]1C[C@@H]2[C@@H](O)c1ccnc2ccc(OC)cc12` [Quinidine], for which the “PPB (fb)” value was 0.74.

Consider `CNC(=C[N+](=O)[O-])NCCSCc1ccc(CN(C)C)o1` [Ranitidine], for which the “PPB (fb)” value is 0.1.

The data set is the same for the next values; noted with them: fraction bound to plasma protein; small molecule dataset, sheet 1-SM, Set Dtr; ref Ingle et al.; cited from earlier work.
In the case of `COc1ccc(-c2nc3ccc(C4=NNC(=O)CC4C)cc3[nH]2)cc1` (stereo not shown) [Pimobendan], the “PPB (fb)” value is on record as 0.98.

Consider `CC(C)NCC(O)COc1cccc2[nH]ccc12` (stereo not shown) [Pindolol], for which the “PPB (fb)” value is reported as 0.48.

Take `NS(=O)(=O)c1cc(C(=O)O)cc(N2CCCC2)c1Oc1ccccc1` [Piretanide]: the “PPB (fb)” value was 0.94.

As for `CC1CCCC(C)N1CCCC(O)(c1ccccc1)c1ccccn1` (stereo not shown) [Pirmenol], the “PPB (fb)” value is reported as 0.87.

`C[C@]12C=CC(=O)C=C1CC[C@@H]1[C@@H]2[C@@H](O)C[C@@]2(C)[C@H]1CC[C@]2(O)C(=O)CO` [Prednisolone]: the “PPB (fb)” value is on record as 0.81.

As to `CCCNC(C)C(=O)Nc1ccccc1C` (stereo not shown) [Prilocaine], the “PPB (fb)” value was 0.39.

For `CCN(CC)CCNC(=O)c1ccc(N)cc1` [Procainamide], the “PPB (fb)” value is recorded as 0.16.

`CN(C)CCCN1c2ccccc2Sc2ccccc21` [Promazine]: the “PPB (fb)” value was 0.89.

As for `CC(CN1c2ccccc2Sc2ccccc21)N(C)C` (stereo not shown) [Promethazine], the “PPB (fb)” value is on record as 0.88.

Consider `CCc1nc(N)nc(N)c1-c1ccc(Cl)cc1` [Pyrimethamine], for which the “PPB (fb)” value is 0.89.

For the molecule `O=c1c(O)c(-c2ccc(O)c(O)c2)oc2cc(O)cc(O)c12` [Quercetin], the “PPB (fb)” value is 0.99.

For `C=C[C@H]1C[N@@]2CC[C@H]1C[C@H]2[C@H](O)c1ccnc2ccc(OC)cc12` [Quinine], the “PPB (fb)” value was 0.81.

As for `Cc1cccc(C)c1NC(=O)NCCCNC(C)C` [Recainam], the “PPB (fb)” value is 0.14.

Still in this data set, the particulars now being: fraction bound to plasma protein; small molecule dataset, sheet 1-SM; ref Ingle et al.; cited from earlier work.
For the molecule `CC[C@@H]1C(=O)OC[C@@H]1Cc1cncn1C` [Pilocarpine], the “PPB (fb)” value was 0.01.

In the case of `CN(C)S(=O)(=O)C1=CC2C(C=C1)Sc1ccccc1N2CCCN1CCC(CCO)CC1` (stereo not shown) [Pipotiazine], the “PPB (fb)” value was 0.45.

In the case of `CC(=O)C1CCC2C3CC=C4CC(O)CCC4(C)C3CCC12C` (stereo not shown) [Pregnenolone], the “PPB (fb)” value is on record as 0.8.

On to `NC(=O)c1cnccn1` [Pyrazinamide], for which the “PPB (fb)” value is reported as 0.1.

As for `CCN1CCC[C@H]1CNC(=O)c1c(OC)ccc(Br)c1OC` [Remoxipride], the “PPB (fb)” value was 0.79.

With `CCOc1cc(CC(=O)N[C@@H](CC(C)C)c2ccccc2N2CCCCC2)ccc1C(=O)O` [Repaglinide], the “PPB (fb)” value is 0.98.

Take `NC(=O)c1ncn([C@@H]2O[C@H](CO)[C@@H](O)[C@H]2O)n1` [Ribavirin]: the “PPB (fb)” value is 0.02.

Still in this data set, the particulars now being: plasma; cited from earlier work.
Take `CCN1CCN(C(=O)N[C@@H](C(=O)N[C@@H]2C(=O)N3[C@@H]2SC(C)(C)[C@@H]3C(=O)O)c2ccccc2)C(=O)C1=O` [Piperacillin]: the “PPB (fb)” value is 0.4.

Consider `N#CC(CCN1CCC(C(N)=O)(N2CCCCC2)CC1)(c1ccccc1)c1ccccc1` [Piritramide], for which the “PPB (fb)” value is listed as 0.94.

Regarding `CC(C)c1cccc(C(C)C)c1O` [Propofol], the “PPB (fb)” value is listed as 0.98.

Turning to `CCC(=O)O[C@](Cc1ccccc1)(c1ccccc1)[C@H](C)CN(C)C` [Propoxyphene], the “PPB (fb)” value is 0.75.
